Values after ≈ are worked out from the molar mass of the structure shown.
Key:
E. coli = assay: Minimal inhibitory concentration (MIC) of powders against E. coli; assay type: cell-based, Escherichia coli; conditions: * = tested chemical formed precipitate in TSB medium
Method: (§1) The minimal inhibitory concentration (MIC) of ZIF-L powders synthesized from a solution with a 2-Me-Im:Zn ratio of 7:1 was tested against E. coli, S. aureus and C. albicans. The same test was conducted for ZIF-8 powders, 2-Me-Im alone and Zn(NO3)2.4H2O alone. The MIC values in mg/mL are tabulated below.

S. aureus = assay: Minimal inhibitory concentration (MIC) of powders against S. aureus; assay type: cell-based, Staphylococcus aureus; conditions: * = tested chemical formed precipitate in TSB medium
Method: as §1

C. albicans = assay: Minimal inhibitory concentration (MIC) of powders against C. albicans; assay type: cell-based, Candida albicans
Method: as §1

Row | MIC (E. coli; Escherichia coli) [mg/mL] | MIC (S. aureus; Staphylococcus aureus) [mg/mL] | MIC (C. albicans; Candida albicans) [µg/mL] | SMILES | MIC, E. coli (E. coli) | MIC, S. aureus (S. aureus) | MIC, C. albicans (C. albicans) [mg/mL]
1 | 12.5 (≈ 152 mM) | 25 (≈ 304 mM) | 6200 (≈ 75.5 mM) | Cc1ncc[nH]1 [2-Me-Im, 2-methylimidazole] | – | – | –
2 | – | – | – | O.O.O.O.O=[N+]([O-])[O-].O=[N+]([O-])[O-].[Zn+2] [Zn(NO3)2•4H2O, Zn(NO3)2.4H2O] | 3.1* mg/mL | >50* mg/mL | 0.8

— patent publication US10519323B2, “Antimicrobial coatings” (AGENCY FOR SCIENCE, TECHNOLOGY AND RESEARCH, priority 2015, dated 2019)
